The results in this text go back to patent US20260335299A1, “SUBSTITUTED OXOISOINDOLINYL PIPERIDINE-2,6-DIONE COMPOUND AS ANTICANCER AGENT” (BRISTOL-MYERS SQUIBB COMPANY, priority 2023, published 2026).

The structures appear in SMILES notation.

Holding throughout (format): cell-based
Assay [1] concerns the target IKZF2 Helios (Homo sapiens, UniProt Q96SW2+Q9UKS7). The assay is described as follows: Human Regulatory T Cell Degradation Assay (Helios). Also noted: Human CD4+ T cells were isolated from fresh healthy leukopaks; endogenous in cells; host or cells: FACS-sorted primary human regulatory T cells from healthy leukopaks. The following applies: human regulatory T cells, 20 h. Here is the method: Cryopreserved human regulatory T cells were thawed in RPMI+10% FBS+20 ng/mL IL-2. After being spun at 1200 rpm for 5 mins, the cells were resuspended in RPMI+10% FBS+20 ng/ml and rested at 37° C. with 5% CO2 for 3 hours. The cells were then plated at 40,000 cells/well in 40 μL RPMI+10% FBS+20 ng/mL human IL-2 in a 384 well cell culture plate prior to using acoustic dispensing technology (ECHO 555) for adding compounds of interest. Cell cultures were incubated for 20 hours at 37° C. and 5% CO2. In order to facilitate analysis, cell cultures were spun down at 1200 rpm for 5 minutes and the supernatant was discarded using an EL406 plate washer. After washing three times with […] PBS, cell pellets were resuspended in 50 μL of […] viability staining solution (Life Technologies, Cat #L34975) and incubated for 30 minutes on ice protected from light. Cells were washed three times with 70 μL PBS+0.5% BSA using an EL406 plate washer. […] Stained cells were resuspended in 30 μL of flow cytometry staining buffer (PBS+0.5% BSA) and analyzed using an Intellicyt Ique Plus flow cytometer.
Table B-1 lists the maximum observed degradation of the IKZF1 protein and IKZF2 protein as measured in the Human Regulatory T Cell Degradation assay. […]

Assay [2] addresses T1, IKZF1 Ikaros (Homo sapiens, UniProt Q13422+Q96SW2). In words: Human Regulatory T Cell Degradation Assay (Ikaros). The following applies: human regulatory T cells, 20 h. As for the experimental part:
Cryopreserved human regulatory T cells were thawed in RPMI+10% FBS+20 ng/mL IL-2. After being spun at 1200 rpm for 5 mins, the cells were resuspended in RPMI+10% FBS+20 ng/ml and rested at 37° C. with 5% CO2 for 3 hours. The cells were then plated at 40,000 cells/well in 40 μL RPMI+10% FBS+20 ng/mL human IL-2 in a 384 well cell culture plate prior to using acoustic dispensing technology (ECHO 555) for adding compounds of interest. Cell cultures were incubated for 20 hours at 37° C. and 5% CO2. In order to facilitate analysis, cell cultures were spun down at 1200 rpm for 5 minutes and the supernatant was discarded using an EL406 plate washer. After washing three times with […] PBS, cell pellets were resuspended in 50 μL of […] viability staining solution (Life Technologies, Cat #L34975) and incubated for 30 minutes on ice protected from light. Cells were washed three times with 70 μL PBS+0.5% BSA using an EL406 plate washer. After shaking the plate to dislodge the cell pellet, cells were resuspended in 50 μL of Fixation Buffer (eBioScience FoxP3 buffer set 00-5523-00) for 60 minutes at room temperature. After centrifuging and discarding the supernatant, cells were permeabilized with 50 μL of permeabilization buffer (eBioScience FoxP3 buffer set 00-5523-00) for 10 minutes at room temperature. Following permeabilization, cells were spun down and the supernatant was replaced with 30 μL fluorescently labelled antibodies against the intracellular targets Helios (Helios-APC [BioLegend, Cat #137222, 1:50])]), Aiolos, and Ikaros 1× Permeabilization buffer and staining reactions were incubated for 1 hour at room temperature; protected from light. Subsequently, […] Permeabilization buffer was added prior to centrifuging the cells and discarding the supernatant. Stained cells were resuspended in 30 μL of flow cytometry staining buffer (PBS+0.5% BSA) and analyzed using an Intellicyt Ique Plus flow cytometer.
Table B-1 lists the maximum observed degradation of the IKZF1 protein and IKZF2 protein as measured in the Human Regulatory T Cell Degradation assay. The results in Table B-1 were rounded to two digits. In the Human Regulatory T Cell Degradation assay, a value of 100% indicated no detectable protein remaining or complete degradation of the protein; and a value of 0% indicated no detectable degradation of the protein by the test compound.

The target of assay [3] is T1, IKZF1 Ikaros. In words: Human CD8+ T Cell Reprogramming (Degradation) Assay (Ikaros). The settings on record: CD8+ T cells, human PBMC, 24 h. Also noted: Cryopreserved healthy donor human peripheral blood mononuclear cells (PBMC); endogenous in cells; host or cells: CD8+ T cells within healthy donor human PBMC. As for the experimental part: Cryopreserved healthy donor human peripheral blood mononuclear cells (PBMC) from healthy donors were thawed and seeded at 500,000 cells/well of 96-well round bottom plates in RPMI 1640 media (Gibco) supplemented with 10% FBS, Pen/Strep (Gibco), MEM-NEAA (Gibco), and sodium pyruvate (Gibco). Cells were treated with titrated doses of compound for 24 hours at 37° C., 5% CO2 before analyzing by flow cytometry.
For flow cytometry staining, cells were washed twice with flow cytometry staining buffer (Thermo Fisher) and incubated in Human Tru-stain Fc block (Biolegend) for 10 minutes before adding eFluor780 viability dye (Thermo Fisher) and surface marker antibody cocktail containing LD-eFluor780, CD3-BUV-395, CD4-BUV805, CD8-FITC, and CD25-BV605 for 30 minutes at 4° C. Cells were then fixed and permeabilized by incubation with permeabilization buffer (eBioscience FoxP3 buffer set 00-5523-00) for 30 minutes at 4° C. as per the kit manufacturer's instructions. Cells were washed twice with the Perm/Wash buffer supplied in the kit as per the manufacturer's instructions and incubated overnight at 4° C. with an intracellular antibody cocktail comprised of antibodies specific for the transcription factors (i.e., Foxp3-BV421, HELIOS-PE-Cy7, EOS-PE, IKAROS-PECF594, AIOLOS-AF647). Cells were washed twice with Perm/Wash buffer and resuspended in flow cytometry staining buffer (Thermo Fisher) prior to acquisition. Sample acquisition and analysis was performed using a BD LSRFortessa (BD Biosciences) flow cytometer. Single-stain controls for each fluorochrome were prepared using UltraComp eBead Compensation Beads (Thermo Fisher). Data were analyzed using FlowJo version 10 and GraphPad Prism Software.
Table D-1 lists the maximum observed degradation of the IKZF1 protein and IKZF3 protein as measured in the Human CD8^+ T Cell Reprogramming assay. The results in Table D-1 were rounded to two digits. In the Human CD8^+ T Cell Reprogramming assay, a value of 100% indicated no detectable protein remaining or complete degradation of the protein; and a value of 0% indicated no detectable degradation of the protein by the test compound.

[4] abbreviates: concentration reducing protein level by 50% compared to DMSO alone.

T1 sequence (Q13422 whole entry): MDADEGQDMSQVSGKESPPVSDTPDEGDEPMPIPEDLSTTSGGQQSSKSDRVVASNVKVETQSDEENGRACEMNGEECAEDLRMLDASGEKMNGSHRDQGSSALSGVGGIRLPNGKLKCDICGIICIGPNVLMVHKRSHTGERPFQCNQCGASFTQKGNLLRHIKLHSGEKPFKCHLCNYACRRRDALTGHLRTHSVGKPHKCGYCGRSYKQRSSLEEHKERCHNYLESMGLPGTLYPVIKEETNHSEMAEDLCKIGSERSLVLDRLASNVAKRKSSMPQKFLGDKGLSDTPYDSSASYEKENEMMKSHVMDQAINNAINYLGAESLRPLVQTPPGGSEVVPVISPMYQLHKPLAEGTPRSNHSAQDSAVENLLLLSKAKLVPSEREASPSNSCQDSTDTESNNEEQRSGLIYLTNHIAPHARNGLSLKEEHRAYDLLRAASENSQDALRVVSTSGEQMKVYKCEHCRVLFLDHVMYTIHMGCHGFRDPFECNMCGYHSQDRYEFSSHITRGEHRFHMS
T1 sequence (Q96SW2 whole entry): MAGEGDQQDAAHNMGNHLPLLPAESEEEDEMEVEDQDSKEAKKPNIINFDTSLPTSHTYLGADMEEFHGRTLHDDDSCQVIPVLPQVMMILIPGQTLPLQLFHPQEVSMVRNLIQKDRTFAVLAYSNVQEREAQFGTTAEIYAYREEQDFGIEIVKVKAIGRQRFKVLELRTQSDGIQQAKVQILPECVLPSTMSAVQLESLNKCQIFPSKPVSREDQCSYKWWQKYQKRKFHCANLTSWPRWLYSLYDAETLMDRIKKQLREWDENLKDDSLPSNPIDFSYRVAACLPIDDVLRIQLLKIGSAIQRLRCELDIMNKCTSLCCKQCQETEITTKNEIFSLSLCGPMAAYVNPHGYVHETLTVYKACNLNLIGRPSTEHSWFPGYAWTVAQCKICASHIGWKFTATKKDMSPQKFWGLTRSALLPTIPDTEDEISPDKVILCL
T1 sequence (Q16531 whole entry partner): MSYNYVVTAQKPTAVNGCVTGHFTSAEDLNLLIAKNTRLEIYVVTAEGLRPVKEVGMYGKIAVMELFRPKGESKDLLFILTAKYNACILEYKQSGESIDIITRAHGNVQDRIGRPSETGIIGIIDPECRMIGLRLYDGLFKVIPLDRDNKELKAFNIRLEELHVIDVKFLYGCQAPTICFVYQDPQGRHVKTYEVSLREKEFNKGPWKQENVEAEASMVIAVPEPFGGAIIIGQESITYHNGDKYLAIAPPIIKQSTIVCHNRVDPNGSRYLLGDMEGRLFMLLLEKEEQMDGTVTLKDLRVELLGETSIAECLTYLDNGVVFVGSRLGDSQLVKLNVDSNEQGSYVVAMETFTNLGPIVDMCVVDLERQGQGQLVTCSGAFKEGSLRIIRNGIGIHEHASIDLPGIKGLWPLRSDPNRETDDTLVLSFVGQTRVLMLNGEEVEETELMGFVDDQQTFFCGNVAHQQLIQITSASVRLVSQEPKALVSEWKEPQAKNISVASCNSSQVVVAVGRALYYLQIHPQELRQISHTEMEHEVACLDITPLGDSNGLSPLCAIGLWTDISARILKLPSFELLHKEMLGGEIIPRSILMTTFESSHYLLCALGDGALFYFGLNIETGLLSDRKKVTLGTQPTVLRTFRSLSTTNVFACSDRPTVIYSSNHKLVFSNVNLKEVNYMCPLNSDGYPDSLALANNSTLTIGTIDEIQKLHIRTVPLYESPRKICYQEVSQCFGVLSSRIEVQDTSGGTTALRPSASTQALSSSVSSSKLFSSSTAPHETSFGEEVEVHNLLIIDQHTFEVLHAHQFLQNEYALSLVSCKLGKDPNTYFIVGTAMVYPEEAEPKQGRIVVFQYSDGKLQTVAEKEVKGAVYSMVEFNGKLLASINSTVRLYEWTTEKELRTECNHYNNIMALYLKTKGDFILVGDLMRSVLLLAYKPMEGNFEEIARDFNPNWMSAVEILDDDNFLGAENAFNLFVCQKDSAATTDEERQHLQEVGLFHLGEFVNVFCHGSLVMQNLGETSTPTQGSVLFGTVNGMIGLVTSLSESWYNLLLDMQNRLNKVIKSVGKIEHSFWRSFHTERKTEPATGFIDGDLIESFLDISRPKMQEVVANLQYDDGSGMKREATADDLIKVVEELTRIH
Sequence of IKZF2 Helios (Q9UKS7 whole entry): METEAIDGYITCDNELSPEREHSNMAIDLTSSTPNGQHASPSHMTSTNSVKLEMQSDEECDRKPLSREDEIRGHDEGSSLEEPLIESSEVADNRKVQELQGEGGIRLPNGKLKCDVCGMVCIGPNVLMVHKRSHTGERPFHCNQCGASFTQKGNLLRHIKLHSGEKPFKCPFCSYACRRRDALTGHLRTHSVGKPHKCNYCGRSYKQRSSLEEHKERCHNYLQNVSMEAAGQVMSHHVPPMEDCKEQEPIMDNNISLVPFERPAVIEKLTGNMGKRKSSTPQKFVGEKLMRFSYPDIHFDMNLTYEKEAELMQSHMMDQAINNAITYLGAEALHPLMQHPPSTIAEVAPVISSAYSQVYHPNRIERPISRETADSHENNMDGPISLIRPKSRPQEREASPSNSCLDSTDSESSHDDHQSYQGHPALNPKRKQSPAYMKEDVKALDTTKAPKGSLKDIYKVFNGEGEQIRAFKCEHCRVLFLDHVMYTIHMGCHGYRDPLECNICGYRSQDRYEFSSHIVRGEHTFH
Sequence of IKZF2 Helios (Q96SW2 whole entry): as the sequence (Q96SW2 whole entry) above
Sequence of IKZF2 Helios (Q16531 whole entry partner): as the sequence (Q16531 whole entry partner) above

As to `Nc1nc(-c2ccc3c(c2F)CN(C2CCC(=O)NC2=O)C3=O)ccc1CN1CC(C2CCC(F)(F)CC2)C1` (stereo not drawn) [Example 1, 3-(5-(6-Amino-5-((3-(4,4-difluorocyclohexyl)azetidin-1-yl)methyl)pyridin-2-yl)-4-fluoro-1-oxoisoindolin-2-yl) piperidine-2,6-dione], the Dmax in assay [1] (Regulatory T cell, read-out: IKZF2 Helios max % deg. observed) stood at 96%; in assay [2] (Regulatory T cell, read-out: IKZF1 Ikaros max % deg. observed), 62%; in assay [3] (read-out: IKZF1 Ikaros Maximum Observed Degradation), 86%. Further, the values for the half-maximal degradation concentration (DC50) in assay [1] (setting [4]), in assay [2] (setting [4]) and in assay [3] (setting [4]) were 0.1 nM, 194 nM and 35 to 44 nM, respectively.
